Data on 4 compounds can be found in article PMC4889029 (Chemistry & biology, 2015).

Assay in all cases: in vitro DNA strand exchange assay with recombinant hRAD51
Holding throughout (assay type): biochemical

Assay [1] has as its target T1, hRAD51 (Homo sapiens, UniProt Q06609).
T1 sequence (Q06609 2-339): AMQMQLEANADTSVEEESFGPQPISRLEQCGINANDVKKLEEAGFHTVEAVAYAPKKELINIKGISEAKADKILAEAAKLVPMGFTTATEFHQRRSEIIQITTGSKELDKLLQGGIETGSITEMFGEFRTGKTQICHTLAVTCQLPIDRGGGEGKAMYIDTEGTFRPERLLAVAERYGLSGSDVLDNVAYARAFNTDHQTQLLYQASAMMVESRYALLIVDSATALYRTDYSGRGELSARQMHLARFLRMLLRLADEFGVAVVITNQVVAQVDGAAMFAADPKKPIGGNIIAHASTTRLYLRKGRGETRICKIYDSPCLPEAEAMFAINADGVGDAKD

The target of assay [2] is T1, hRAD51. This is another data set of the same source.
Assay [3] has as its target T1, hRAD51. The source holds these as a separate data set.

Molecules are shown by their SMILES. Read-outs that look alike come from different tables or passages of the source.

In general, IC50 refers to the midpoint of a concentration-inhibition curve. With `O=S(=O)(O)c1cc(N=C=S)ccc1/C=C/c1ccc(N=C=S)cc1S(=O)(=O)O` [DIDS], the IC50 in assay [1] turned out to be 90 ± 2.5 µM. Broadly, the EC50 is the concentration at which the effect is half-maximal. Turning to `COc1cc(/C=C/c2ccc(O)cc2)cc(OC)c1` [P-ter, E-pterostilbene], the EC50 in assay [2] was found to be 19.2 ± 2.4 µM.

`O=C1C(Cl)=C(N2CCOCC2)C(=O)N1c1ccc(Cl)c(Cl)c1` [RI-1]: in assay [1], the IC50 turned out to be 50 ± 5 µM. Consider `O=C(Nc1ccc(Br)cc1)c1ccc(Br)c(S(=O)(=O)NCc2ccccc2)c1` [RS-1], for which the EC50 in assay [3] turned out to be 25 ± 3 µM.
